In US9872495B2, “Peptoid oligomers, pharmaceutical compositions and methods of using the same” (priority 2009, dated 2018):
Values after ≈ are worked out from the molar mass of the structure shown.

Tests used:
fresh human erythrocytes = assay: Hemolytic activity; type: cell-based; conditions: red cells of human
Method: Typically, toxicity is evaluated by hemolytic concentration50 (HC50), which measures the concentration of antimicrobial agents at which 50% of the erythrocytes in the culture are lysed. Significant hemolysis, as evaluated by HC50, was detectable only for peptide gramicidin S (40 μg/mL). […] In order to test hemolytic activity of peptoid oligomers further, more stringent parameters were used. Instead of HC50, hemolytic concentration10 (HC10) was used to evaluate hemolytic activity of peptoids used in this study. HC10 represents the concentration of antimicrobial agents where 10% of erythrocytes are lysed. HC10 values were detectable for only four peptoid oligomers. […] Antimicrobial activity was tested against the gram-negative strain Escherichia coli ATCC 25922, and […] strains Staphylococcus aureus ATCC 25923, and Bacillus subtilis ATCC 6633, according to the guidelines given in the document […]-A7 of the CLSI (Clinical and Laboratory Standards Institute; Clinical and Laboratory Standards Institute. Methods for Dilution Antimicrobial Susceptibility Tests for Bacteria That Grow Aerobically-Seventh Edition: Approved Standard CLSI document […]-A7. CLSI, Wayne, USA, 2006). This reference is incorporated herein in its entirety. Hemolytic activity was tested against fresh human erythrocytes.

[1] = system: MSSA (methicillin-sensitive) and MRSA (methicillin-resistant) S. aureus strains; type: cell-based, Staphylococcus aureus
Method: Experimental Design: • Twelve strains of MSSA (methicillin-sensitive) and MRSA (methicillin-resistant) S. aureus were cross-tested against two antibacterial peptoid oligomers.
[drawing 50] • Testing was accomplished with 96-well plates wherein each well contained LB media, the S. aureus strain, and a solution of the compound in ethanol at a specific concentration. • A twofold serial dilution of each compound was accomplished with pure ethanol starting from 0.5 mg/mL to 0.0039 mg/mL. • To determine the appropriate concentration of the bacterial strain for each well, the previously grown (overnight in LB media) cultures were diluted with LB media until the optical density at 595 nm (OD595˜OD600) was ˜0.005. • Each experiment was conducted in triplicate, e.g. testing of “Newman” S. aureus strain against a specific concentration of C(NapNdp)3 was replicated in three wells. • Control experiments were also conducted in absence of the compound, i.e. the plates contained only the bacterial strain, LB media, and ethanol. • The plates were incubated and gently shaken overnight (20 hours) at 37° C., and OD595 was read before (t=0) and after (t=20) incubation.
Specifically, along a dilution sequence, the well with the least OD595 after subtraction was determined to be the MIC.

[2] = system: Escherichia coli ATCC 25922; type: cell-based; conditions: ATCC 25922
Method: (§1) Antimicrobial activity was tested against the gram-negative strain Escherichia coli ATCC 25922, and […] strains Staphylococcus aureus ATCC 25923, and Bacillus subtilis ATCC 6633, according to the guidelines given in the document […]-A7 of the CLSI (Clinical and Laboratory Standards Institute; Clinical and Laboratory Standards Institute. Methods for Dilution Antimicrobial Susceptibility Tests for Bacteria That Grow Aerobically-Seventh Edition: Approved Standard CLSI document […]-A7. CLSI, Wayne, USA, 2006). This reference is incorporated herein in its entirety. Hemolytic activity was tested against fresh human erythrocytes.

[3] = system: Staphylococcus aureus ATCC 25923; type: cell-based; conditions: ATCC 25923
Method: as §1

[4] = system: Bacillus subtilis ATCC 6633; type: cell-based; conditions: ATCC 6633
Method: as §1

CC(=O)N(CCCN)CC(=O)N(CC(=O)N(CCCN)CC(=O)N(CC(=O)N(CCCN)CC(=O)N(CC(N)=O)CC(c1ccccc1)c1ccccc1)CC(c1ccccc1)c1ccccc1)CC(c1ccccc1)c1ccccc1 [Compound 4, Ac(NapNdp)3] was tested, and the “HC10 (concentration where 10% hemolysis is observed)” value (fresh human erythrocytes) was over 62.5 µg/mL, the “HC50 (concentration where 50% hemolysis is observed)” value (fresh human erythrocytes) was over 250 µg/mL and the “activity across strains of Staphylococcus aureus (in words)” value ([1]; clinical, community-acquired, and hospital strains, methicillin-sensitive and methicillin-resistant) was “active”. The “MIC against Staphylococcus aureus strain” value ([1]; methicillin-sensitive) and (methicillin-resistant) strains) was 15.6 µg/mL (≈ 14 µM), the “MIC E. coli” value [2] was 15.6 µg/mL (≈ 14 µM) and the “MIC S. aureus” value [3] was 15.6 µg/mL (≈ 14 µM). For the same compound, the “MIC B. sub” value [4] was 1 µg/mL (≈ 0.898 µM).
